Experiments:
RAW264.7 [1] = test: Inhibition of LPS-induced NO release in mouse RAW264.7 cells at 20 uM preincubated with compound for 48 hrs followed by LPS addition and measured after 24 hrs by nitric oxide assay relative to control; format: functional; conditions: time 72 hrs
RAW264.7 [2] = test: Cytotoxicity against mouse RAW264.7 cells assessed as reduction in cell viability at 20 uM incubated for 48 hrs by MTT method; format: toxicity, cell-based; conditions: raw264.7, 48 h
RAW264.7 [3] = test: Inhibition of LPS-induced NO release in mouse RAW264.7 cells preincubated with compound for 48 hrs followed by LPS addition and measured after 24 hrs by nitric oxide assay; format: functional, cell-based
RAW264.7 [4] = test: cells; conditions: Mus musculus
Description: Antiinflammatory activity against mouse RAW264.7 cells assessed as inhibition of LPS-induced TNF-alpha secretion pretreated with LPS for 3 hrs followed by compound addition and measured after 24 hrs by ELISA

RAW264.7 [5] = test: Downregulation of iNOS expression in LPS-induced mouse RAW264.7 cells preincubated for 3 hrs followed by LPS addition for 30 mins by Western blotting analysis; format: functional, cell-based; conditions: time 3.5 hrs
RAW264.7 [6] = test: cells; conditions: Mus musculus; remark: listed apart in the source
Description: Antiinflammatory activity against mouse RAW264.7 cells assessed as inhibition of LPS-induced IIL-6 secretion pretreated with LPS for 3 hrs followed by compound addition and measured after 24 hrs by ELISA

RAW264.7 [7] = test: Antiinflammatory activity against mouse RAW264.7 cells assessed as decrease in LPS-induced TNF-alpha release preincubated for 3 hrs followed by LPS addition for 30 mins by Western blotting analysis; format: functional, cell-based; conditions: dose 4-16 µM
RAW264.7 [8] = test: Downregulation of COX-2 expression in LPS-induced mouse RAW264.7 cells preincubated for 3 hrs followed by LPS addition for 30 mins by Western blotting analysis; format: functional, cell-based; conditions: time 3.5 hrs
RAW264.7 [9] = test: Antiinflammatory activity against mouse RAW264.7 cells assessed as decrease in LPS-induced IIL-6 release preincubated for 3 hrs followed by LPS addition for 30 mins by Western blotting analysis; format: functional, cell-based; conditions: dose 4-16 µM, time 3.5 hrs
RAW264.7 [10] = test: Antiinflammatory activity against mouse RAW264.7 cells assessed as decrease in LPS-induced IIL-1beta release preincubated for 3 hrs followed by LPS addition for 30 mins by Western blotting analysis; format: functional, cell-based; conditions: dose 4-16 µM, time 3.5 hrs
RAW264.7 [11] = test: cells; conditions: Mus musculus; remark: listed apart in the source
Description: Antiinflammatory activity against mouse RAW264.7 cells assessed as inhibition of LPS-induced IIL-1beta secretion pretreated with LPS for 3 hrs followed by compound addition and measured after 24 hrs by ELISA

Compound | inhibition at 20 µM (RAW264.7 [1]) [%] | Activity (RAW264.7 [2]) | further results
COc1cc(/C=C/c2ccc(OCC(=O)O)cc2)c(/C=N/OCc2ccc(C)cc2)c(OC)c1 | 18.9 | Non-toxic | 
COc1cc(/C=C/c2ccc(OCC(=O)NCCCO)cc2)c(/C=N/OCc2ccc(Br)c(F)c2)c(OC)c1 | 48 | Non-toxic | 
CCCCCC(=O)OCCCNC(=O)COc1ccc(/C=C/c2cc(OC)cc(OC)c2/C=N/OCc2ccc(F)cc2)cc1 | 33.1 | Non-toxic | 
Cc1ccc(-c2cc(C(F)(F)F)nn2-c2ccc(S(N)(=O)=O)cc2)cc1 [CELECOXIB] | 29.4 |  | 
CCNC(=O)COc1ccc(/C=C/c2cc(OC)cc(OC)c2/C=N/OCc2ccc(F)cc2)cc1 | 68.5 | Non-toxic | IC50 (RAW264.7 [3]): 14.6 µM
CCOC(=O)COc1ccc(/C=C/c2cc(OC)cc(OC)c2/C=N/OCc2ccc(F)cc2)cc1 | 28.6 | Non-toxic | 
CCOC(=O)COc1ccc(/C=C/c2cc(OC)cc(OC)c2/C=N/OCc2ccc(C(F)(F)F)cc2)cc1 | 18.6 | Non-toxic | 
CCCCCCCC(=O)OCCCNC(=O)COc1ccc(/C=C/c2cc(OC)cc(OC)c2/C=N/OCc2ccc(F)cc2)cc1 | 20.8 | Non-toxic | 
CCCC(=O)OCCCNC(=O)COc1ccc(/C=C/c2cc(OC)cc(OC)c2/C=N/OCc2ccc(F)cc2)cc1 | 47.1 | Non-toxic | 
COc1cc(/C=C/c2ccc(OCC(=O)O)cc2)c(/C=N/OCc2ccc(Br)cc2)c(OC)c1 | 13.7 | Non-toxic | 
C#CCO/N=C/c1c(/C=C/c2ccc(OCC(=O)OCC)cc2)cc(OC)cc1OC | 21.8 | Non-toxic | 
COc1cc(/C=C/c2ccc(OCC(=O)O)cc2)c(/C=N/OCc2ccc(F)cc2)c(OC)c1 | 26.1 | Non-toxic | 
COc1cc(/C=C/c2ccc(OCC(=O)O)cc2)c(/C=N/OCc2ccc(Br)c(F)c2)c(OC)c1 | 25.8 | Non-toxic | 
CCOC(=O)COc1ccc(/C=C/c2cc(OC)cc(OC)c2/C=N/OCc2ccccc2)cc1 | 37.8 | Non-toxic | 
COc1cc(/C=C/c2ccc(OCC(=O)NCCCO)cc2)c(/C=N/OCc2ccc(Cl)cc2)c(OC)c1 | 64.6 | Non-toxic | IC50 (RAW264.7 [3]): 18.1 µM
CCOC(=O)COc1ccc(/C=C/c2cc(OC)cc(OC)c2/C=N/OCc2ccc(C)cc2)cc1 | 20 | Non-toxic | 
COc1cc(/C=C/c2ccc(OCC(=O)O)cc2)c(/C=N/OCc2ccccc2)c(OC)c1 | 25.2 | Non-toxic | 

Compound | inhibition at 20 µM (RAW264.7 [1]) [%] | Activity (RAW264.7 [2]) | further results
COc1cc(/C=C/c2ccc(OCC(=O)NCCCO)cc2)c(/C=N/OCc2ccc(Cl)c(F)c2)c(OC)c1 | 61 | Non-toxic | IC50 (RAW264.7 [3]): 17.4 µM
COc1cc(/C=C/c2ccc(OCC(=O)NCCCO)cc2)c(/C=N/OCc2ccccc2)c(OC)c1 | 34.7 | Non-toxic | 
CCNC(=O)COc1ccc(/C=C/c2cc(OC)cc(OC)c2/C=N/OCc2ccccc2)cc1 | 71.3 | Non-toxic | IC50 (RAW264.7 [3]): 12.3 µM
CCOC(=O)COc1ccc(/C=C/c2cc(OC)cc(OC)c2/C=N/OCc2ccc(Cl)cc2)cc1 | 29 | Non-toxic | 
CCNC(=O)COc1ccc(/C=C/c2cc(OC)cc(OC)c2/C=N/OCc2ccc(Cl)c(F)c2)cc1 | 40.6 | Non-toxic | 
CCNC(=O)COc1ccc(/C=C/c2cc(OC)cc(OC)c2/C=N/OCc2ccc(Br)c(F)c2)cc1 | 42.1 | Non-toxic | 
CCCCO/N=C/c1c(/C=C/c2ccc(OCC(=O)OCC)cc2)cc(OC)cc1OC | 17.2 | Non-toxic | 
CCNC(=O)COc1ccc(/C=C/c2cc(OC)cc(OC)c2/C=N/OCc2ccc(Cl)cc2)cc1 | 49.2 | Non-toxic | 
COc1cc(/C=C/c2ccc(OCC(=O)O)cc2)c(/C=N/OCc2ccc(C(F)(F)F)cc2)c(OC)c1 | 21.8 | Non-toxic | 
CCOC(=O)COc1ccc(/C=C/c2cc(OC)cc(OC)c2/C=N/OCc2ccc(Cl)c(F)c2)cc1 | 28.1 | Non-toxic | 
C#CCO/N=C/c1c(/C=C/c2ccc(OCC(=O)O)cc2)cc(OC)cc1OC | 22.2 | Non-toxic | 
CCCCO/N=C/c1c(/C=C/c2ccc(OCC(=O)O)cc2)cc(OC)cc1OC | 20.2 | Non-toxic | 
COc1cc(/C=C/c2ccc(OCC(=O)O)cc2)c(/C=N/OCc2ccc(Cl)c(F)c2)c(OC)c1 | 23.8 | Non-toxic | 
CCOC(=O)COc1ccc(/C=C/c2cc(OC)cc(OC)c2/C=N/OCc2ccc(Br)c(F)c2)cc1 | 29.3 | Non-toxic | 
COc1cc(/C=C/c2ccc(OCC(=O)O)cc2)c(/C=N/OCc2ccc(Cl)cc2)c(OC)c1 | 24.8 | Non-toxic | 
CCOC(=O)COc1ccc(/C=C/c2cc(OC)cc(OC)c2/C=N/OCc2ccc(Br)cc2)cc1 | 19.5 | Non-toxic | 
COc1cc(/C=C/c2ccc(OCC(=O)NCCCO)cc2)c(/C=N/OCc2ccc(F)cc2)c(OC)c1 | 86.7 | Non-toxic | IC50 (RAW264.7 [4]): 9.14 µM; Activity (RAW264.7 [5]): Dose-dependent-effect; IC50 (RAW264.7 [3]): 9.87 µM; IC50 (RAW264.7 [6]): 6.76 µM; Activity (RAW264.7 [7]): Dose-dependent-effect; Activity (RAW264.7 [8]): Dose-dependent-effect; Activity (RAW264.7 [9]): Dose-dependent-effect; Activity (RAW264.7 [10]): Dose-dependent-effect; IC50 (RAW264.7 [11]): 7.36 µM

— ChEMBL document CHEMBL6078685, “Potential COX-2 inhibitors modulating NF-κB/MAPK signaling pathways: Design, synthesis and evaluation of anti-inflammatory activity of Pterostilbene-carboxylic acid derivatives with an oxime ether moiety” (Bioorg Med Chem, 2025)
